Melting point data for 10 compounds are collected here from US6444677B2, “5-membered heteroaryl substituted 1,4-dihydropyridine compounds as bradykinin antagonists” (Pfizer Inc., priority 1999, dated 2002).

Structures can show the parent of a compound that is named as a salt.

For the compound `COC(=O)C1=C(CCc2nccs2)NC(CC(=O)N2CCN(CCC3(N4CCCC4=O)CCCC3)CC2)=C(C(=O)OC)C1c1c(Cl)cccc1Cl` (stereo not shown) (as salt: HCl) [Example 33, Dimethyl 4-(2,6-dichlorophenyl)-2-[2-oxo-2-[4-[2-[1-(2-oxo-1-pyrrolidinyl)cyclopentyl]ethyl]-1-piperazinyl]ethyl]-6-[2-(1,3-thiazol-2-yl)ethyl]-1,4-dihydro-3,5-pyridinedicarboxylate], the melting point is 175 to 180 °C (dec.).

Consider `COC(=O)C1=C(CCc2nccs2)NC(CC(=O)N2CCN(C3CCC(N4CCCC4=O)CC3)CC2)=C(C(=O)OC)C1c1c(Cl)cccc1Cl` (stereo not shown) (as salt: HCl) [Example 23, Dimethyl 4-(2,6-dichlorophenyl)-2-[2-oxo-2-[4-[4-(2-oxo-1-pyrrolidinyl)cyclohexyl]-1-piperazinyl]ethyl]-6-[2-(1,3-thiazol-2-yl)ethyl]-1,4-dihydro-3,5-pyridinedicarboxylate], for which the melting point is 182 to 184 °C (dec.).

As for `COC(=O)C1=C(CCc2nccs2)NC(CC(=O)N2CCN(CCC(C)(C)N3CCCC3=O)CC2)=C(C(=O)OC)C1c1c(Cl)cccc1Cl` (stereo not shown) (as salt: HCl) [Example 20, Dimethyl 4-(2,6-dichlorophenyl)-2-[2-[4-[3-methyl-3-(2-oxo-1-pyrrolidinyl)butyl]-1-piperazinyl]-2-oxoethyl]-6-[2-(1,3-thiazol-2-yl)ethyl]-1,4-dihydro-3,5-pyridinedicarboxylate], the melting point is 179 °C (dec.).

In turn, `COC(=O)C1=C(CCc2nccs2)NC(CC(=O)N2CCN(CC(C)(C)CN)CC2)=C(C(=O)OC)C1c1c(Cl)cccc1Cl` (stereo not shown) [Example 18, Dimethyl 2-[2-[4-(3-amino-2,2-dimethylpropyl)-1-piperazinyl]-2-oxoethyl]-4-(2,6-dichlorophenyl)-6-[2-(1,3-thiazol-2-yl)ethyl]-1,4-dihydro-3,5-pyridinedicarboxylate] returned a melting point of 158 to 162 °C.

As for `CCN(CC)C1C2CCC1CC(N1CCN(C(=O)CC3=C(C(=O)OC)C(c4c(Cl)cccc4Cl)C(C(=O)OC)=C(CCc4nccs4)N3)CC1)C2` (stereo not shown) (as salt: HCl) [Example 12, Dimethyl 4-(2,6-dichlorophenyl)-2-[2-[4-(8-(diethylamino)bicyclo [3.2.1]oct-3-yl)-1-piperazinyl]-2-oxoethyl]-6-[2-(1,3-thiazol-2-yl)ethyl]-1,4-dihydro-3,5-pyridinedicarboxylate], the melting point is 200 to 205 °C (dec.).

In the case of `COC(=O)C1=C(CCc2nccs2)NC(CC(=O)N2CCN(CCC3(C(N)=O)CCCC3)CC2)=C(C(=O)OC)C1c1c(Cl)cccc1Cl` (stereo not shown) (as salt: HCl) [Example 43, Dimethyl 2-[2-[4-[2-[1-(aminocarbonyl)cyclopentyl]ethyl]-1-piperazinyl]-2-oxoethyl]-4-(2,6-dichlorophenyl)-6-[2-(1,3-thiazol-2-yl)ethyl]-1,4-dihydro-3,5-pyridinedicarboxylate], the melting point was 158 to 163 °C (dec.).

As for `CCNCC1(CN2CCN(C(=O)CC3=C(C(=O)OC)C(c4c(Cl)cccc4Cl)C(C(=O)OC)=C(CCc4nccs4)N3)CC2)CCCCC1` (stereo not shown) (as salt: HCl) [Example 3, Dimethyl 4-(2,6-dichlorophenyl)-2-[2-[4-[[1-[(ethylamino)methyl]cyclohexyl]methyl]-1-piperazinyl]-2-oxoethyl]-6-[2-(1,3-thiazol-2-yl)ethyl]-1,4-dihydro-3,5-pyridinedicarboxylate], the melting point is 206 to 210 °C (dec.).

`COC(=O)C1=C(CCc2nccs2)NC(CC(=O)N2CCN(CC(C)(C)CNS(C)(=O)=O)CC2)=C(C(=O)OC)C1c1c(Cl)cccc1Cl` (stereo not shown) [Example 13, Dimethyl 4-(2,6-dichlorophenyl)-2-[2-[4-[2,2-dimethyl-3-[(methylsulfonyl)amino]propyl]-1-piperazinyl]-2-oxoethyl]-6-[2-(1,3-thiazol-2-yl)ethyl]-1,4-dihydro-3,5-pyridinedicarboxylate]: the melting point lay within 132 to 136 °C.

As for `COC(=O)C1=C(CCc2nccs2)NC(CC(=O)N2CCN(CCCN3CCC(C)C3=O)CC2)=C(C(=O)OC)C1c1c(Cl)cccc1Cl` (stereo not shown) [Example 30, Dimethyl 4-(2,6-dichlorophenyl)-2-[2-[4-[3-(3-methyl-2-oxo-1-pyrrolidinyl)propyl]-1-piperazinyl]-2-oxoethyl]-6-[2-(1,3-thiazol-2-yl)ethyl]-1,4-dihydro-3,5pyridinedicarboxylate], the melting point is 175 to 178 °C (dec.).

For the compound `COC(=O)C1=C(CCc2nccs2)NC(CC(=O)N2CCN(CCC3(O)CCCCC3)CC2)=C(C(=O)OC)C1c1c(Cl)cccc1Cl` (stereo not shown) (as salt: HCl) [Example 28, Dimethyl 4-(2,6-dichlorophenyl)-2-[2-[4-[2-(1-hydroxycyclohexyl)ethyl]-1-piperazinyl]-2-oxoethyl]-6-[2-(1,3-thiazol-2-yl)ethyl]-1,4-dihydro-3,5-pyridinedicarboxylate], the melting point was 188 to 190 °C (dec.).
